Test results published in US20230165865A1, “HETEROARYLDIHYDROPYRIMIDINE DERIVATIVES AND METHODS OF TREATING HEPATITIS B INFECTIONS” (Janssen Pharmaceutica NV, priority 2018, published 2023).
Like-named read-outs stand apart in the source and are kept apart here.

How the values were obtained:
[1] = tested on: HBV; test: Anti-viral assay in HepG2.2.15 cells: anti-HBV activity, HBV DNA in culture medium by qPCR; format: cell-based; details: HepG2.2.15 cells, 6 days treatment, HBV DNA by qPCR, read-out: EC50
Experimental: (§1) HepG2.2.15 (the HepG2.2.15 cell line can be produced by transfection of the HepG2 cell line as described in Sells, Chen, and Acs 1987 (Proc. Natl. Acad. Sci. USA 84: 1005-1009), and the HepG2 cell line is available from ATCC® under number HB-8065™)
(§2) HepG2.2.15 cells were plated into 96-well plate in 2% FBS culture medium at the density of 40,000 cells/well and 5,000cells/well for HBV inhibitory activity and cytotoxicity determination, respectively. After incubation at 37° C., 5% CO2 overnight, cells were treated with medium containing compounds for 6 days with medium and compounds refreshed after 3 days of treatment. Each compound was tested in a 1:3 serial dilutions at 8 different concentrations in triplicate. The highest concentration of the compounds was 10 uM or 1 uM for anti-HBV activity assay and 100 uM for cytotoxicity determination.
The change of HBV DNA level induced by the compounds was assessed by quantitative real-time polymerase chain reaction (qPCR). Briefly, the HBV DNA in the culture medium was extracted using QIAamp 96 DNA Blood Kit according to the manual and then quantified by real-time PCR assay using the primers and probe in the table 1 below.
(§3) EC50 and CC50 values are calculated by the […] PRISM software.

[2] = Cytotoxicity determination in HepG2.2.15 cells (CCK-8 assay); format: cell-based; details: human, 6 days treatment, CCK-8, highest concentration 100 uM
Experimental: as §1, §2
Cell viability was determined by CCK-8 assay. After 6 days of compounds treatment, 20 μl CCK-8 reagents were added to each well of cytotoxicity assay plates. Cell plates were incubated at 37° C., 5% CO2 for 2.5 h. The absorbance at 450 nm wavelength and the absorbance at 630 nm wavelength as reference was measured.
as §3

[3] = Hepatitis B virus, HepG2.2.15, 144 h

CCOC(=O)C1=C(CN2CCN3C(=S)N(CC(C)(C)C(=O)O)C[C@@H]3C2)NC(c2ncoc2C)=N[C@H]1c1ccc(F)cc1Cl (single isomer, unassigned) [Compound 33A, 3-(7-((6-(2-Chloro-4-fluorophenyl)-5-(ethoxycarbonyl)-2-(5-methyloxazol-4-yl)-3,6-dihydropyrimidin-4-yl)methyl)-3-thioxohexahydroimidazo[1,5-a]pyrazin-2(3H)-yl)-2,2-dimethylpropanoic acid]
EC50 [1, 3]: 12 nM
CC50 at 6 days [2]: 37800 nM

CCOC(=O)C1=C(CN2CCN3C(=S)N(C)C[C@@H]3[C@H]2C(=O)O)NC(c2nccs2)=N[C@H]1c1cccc(F)c1Cl (single isomer, unassigned) [Compound 19B, (trans)-7-((6-(2-chloro-3-fluorophenyl)-5-(ethoxycarbonyl)-2-(thiazol-2-yl)-3,6-dihydropyrimidin-4-yl)methyl)-2-methyl-3-thioxooctahydro-imidazo[1,5-a]pyrazine-8-carboxylic acid]
EC50 [1, 3]: 1.8 nM
CC50 at 6 days [2]: 51200 nM

COC(=O)C1=C(CN2CCN3C(=S)N(CC(C)(C)C(=O)O)C[C@@H]3C2)NC(c2nccs2)=N[C@H]1c1ccc(F)cc1Br (single isomer, unassigned) [Compound 16B, 3-(7-((6-(2-Bromo-4-fluorophenyl)-5-(methoxycarbonyl)-2-(thiazol-2-yl)-3,6-dihydropyrimidin-4-yl)methyl)-3-thioxohexahydroimidazo[1,5-a]pyrazin-2(3H)-yl)-2,2-dimethylpropanoic acid]
EC50 [1, 3]: 808 nM
CC50 at 6 days [2]: 29500 nM

CCOC(=O)C1=C(CN2CCN3C(=S)N(CC(C)(C)C(=O)O)CC[C@H]3C2)NC(c2nccs2)=N[C@H]1c1cccc(F)c1C [Compound 6, 3-((S)-2-(((S)-5-(ethoxycarbonyl)-6-(3-fluoro-2-methylphenyl)-2-(thiazol-2-yl)-3,6-dihydropyrimidin-4-yl)methyl)-6-thioxohexahydro-2H-pyrazino[1,2-c]pyrimidin-7(6H)-yl)-2,2-dimethylpropanoic acid]
EC50 [1, 3]: 67 nM
CC50 at 6 days [2]: 20500 nM

CCOC(=O)C1=C(CN2CCN3C(=S)N(CC(C)(C)C(=O)O)CC3C2)NC(c2ncoc2C)=NC1c1cccc(F)c1C (single isomer, unassigned) [Compound 26A, 3-(7-((5-(Ethoxycarbonyl)-6-(3-fluoro-2-methylphenyl)-2-(5-methyloxazol-4-yl)-3,6-dihydropyrimidin-4-yl)methyl)-3-thioxohexahydroimidazo[1,5-a]pyrazin-2(3H)-yl)-2,2-dimethylpropanoic acid]
EC50 [1, 3]: 13.2 nM
CC50 at 6 days [2]: 26200 nM

CCOC(=O)C1=C(CN2CCN3C(=S)N(CC(C)(C)C(=O)O)C[C@@H]3C2)NC(c2nccs2)=N[C@H]1c1ccc(C)cc1F (single isomer, unassigned) [Compound 25A, 3-(7-((5-(Ethoxycarbonyl)-6-(2-fluoro-4-methylphenyl)-2-(thiazol-2-yl)-3,6-dihydropyrimidin-4-yl)methyl)-3-thioxohexahydroimidazo[1,5-a]pyrazin-2(3H)-yl)-2,2-dimethylpropanoic acid]
EC50 [1, 3]: 91.6 nM
CC50 at 6 days [2]: 31000 nM

CCOC(=O)C1=C(CN2CCN3C(=CC#N)N(CC(C)(C)C(=O)O)CC3C2)NC(c2nccs2)=N[C@H]1c1cccc(F)c1C (stereo partly drawn) [Compound 7, 3-(3-(Cyanomethylene)-7-(((S)-5-(ethoxycarbonyl)-6-(3-fluoro-2-methylphenyl)-2-(thiazol-2-yl)-3,6-dihydropyrimidin-4-yl)methyl)hexahydroimidazo[1,5-a]pyrazin-2(3H)-yl)-2,2-dimethylpropanoic acid]
EC50 [1, 3]: 720 nM
CC50 at 6 days [2]: 68700 nM

CCOC(=O)C1=C(CN2CCN3C(=S)N(CC(C)(C)C(=O)O)CC[C@@H]3C2)NC(c2nccs2)=N[C@H]1c1cccc(F)c1C [Compound 6A, 3-((R)-2-(((S)-5-(ethoxycarbonyl)-6-(3-fluoro-2-methylphenyl)-2-(thiazol-2-yl)-3,6-dihydropyrimidin-4-yl)methyl)-6-thioxohexahydro-2H-pyrazino[1,2-c]pyrimidin-7(6H)-yl)-2,2-dimethylpropanoic acid]
EC50 [1, 3]: 19.4 nM
CC50 at 6 days [2]: 11400 nM

CCOC(=O)C1=C(CN2CCN3C(=S)N(CC(C)(C)C(=O)O)C[C@@H]3C2)NC(c2nccs2)=N[C@H]1c1ccc(F)c(F)c1C (single isomer, unassigned) [Compound 15B, 3-(7-((6-(3,4-Difluoro-2-methylphenyl)-5-(ethoxycarbonyl)-2-(thiazol-2-yl)-3,6-dihydropyrimidin-4-yl)methyl)-3-thioxohexahydroimidazo[1,5-a]pyrazin-2(3H)-yl)-2,2-dimethylpropanoic acid]
EC50 [1, 3]: 300 nM
CC50 at 6 days [2]: 45000 nM

[2H][C@@]1(c2cccc(F)c2C)N=C(c2nccs2)NC(CN2CCN3C(=S)N(CC(C)(C)C(=O)O)C[C@@H]3C2)=C1C(=O)OCC (single isomer, unassigned) [Compound 36B, 3-(7-((6-Deutero-5-(ethoxycarbonyl)-6-(3-fluoro-2-methylphenyl)-2-(thiazol-2-yl)-3,6-dihydropyrimidin-4-yl)methyl)-3-thioxohexahydroimidazo[1,5-a]pyrazin-2(3H)-yl)-2,2-dimethylpropanoic acid]
EC50 [1, 3]: 2.6 nM
CC50 at 6 days [2]: 23000 nM

CCOC(=O)C1=C(CN2CCN3C(=S)N(CC4(C(=O)O)CC4)CC3C2)NC(c2nccs2)=N[C@H]1c1cccc(F)c1C (single isomer, unassigned) [Compound 9A]
EC50 [1]: 64 nM
CC50 at 6 days [2]: 14900 nM

CCOC(=O)C1=C(CN2CCN3C(=S)N(C(C)(C)CC(=O)O)CC3C2)NC(c2nccs2)=N[C@H]1c1cccc(F)c1C (single isomer, unassigned) [Compound 30A]
EC50 [1, 3]: 5 nM
CC50 at 6 days [2]: 8600 nM

CCOC(=O)C1=C(CN2CCN3C(=NC#N)N(CC(C)(C)C(=O)O)CC3C2)NC(c2nccs2)=N[C@H]1c1cccc(F)c1C (stereo partly drawn) [Compound 2, 3-(3-(cyanoimino)-7-(((S)-5-(ethoxycarbonyl)-6-(3-fluoro-2-methylphenyl)-2-(thiazol-2-yl)-3,6-dihydropyrimidin-4-yl)methyl)hexahydroimidazo[1,5-a]pyrazin-2(3H)-yl)-2,2-dimethylpropanoic acid]
EC50 [1, 3]: 49 nM
CC50 at 6 days [2]: 55400 nM

COC(=O)C1=C(CN2CCN3C(=S)N(CC(C)(C)C(=O)O)C[C@@H]3C2)NC(c2nccs2)=N[C@H]1c1cccc(F)c1Cl (single isomer, unassigned) [Compound 20A, 3-(7-((6-(2-chloro-3-fluorophenyl)-5-(methoxycarbonyl)-2-(thiazol-2-yl)-3,6-dihydropyrimidin-4-yl)methyl)-3-thioxohexahydroimidazo[1,5-a]pyrazin-2(3H)-yl)-2,2-dimethylpropanoic acid]
EC50 [1, 3]: 3.5 nM
CC50 at 6 days [2]: 16400 nM

CCOC(=O)C1=C(CN2CCN3C(=S)N(c4ccc(C(=O)O)cc4)CC3C2)NC(c2nccs2)=N[C@H]1c1cccc(F)c1C (stereo in doubt) [Compound 23, 4-(7-((5-(ethoxycarbonyl)-6-(3-fluoro-2-methylphenyl)-2-(thiazol-2-yl)-3,6-dihydropyrimidin-4-yl)methyl)-3-thioxohexahydroimidazo[1,5-a]pyrazin-2(3H)-yl)benzoic acid]
EC50 [1, 3]: 4.6 nM
CC50 at 6 days [2]: 2600 nM

CCOC(=O)C1=C(CN2CCN3C(=S)N(CC(C)(C)C(=O)O)C[C@@H]3C2)NC(c2nccs2)=N[C@@H]1c1ccc(F)nc1C (single isomer, unassigned) [Compound 37, 3-(7-((5-(ethoxycarbonyl)-6-(6-fluoro-2-methylpyridin-3-yl)-2-(thiazol-2-yl)-3,6-dihydropyrimidin-4-yl)methyl)-3-thioxohexahydroimidazo[1,5-a]pyrazin-2(3H)-yl)-2,2-dimethylpropanoic acid]
EC50 [1, 3]: 100 nM
CC50 at 6 days [2]: ≥ 100000 nM

CCOC(=O)C1=C(CN2CCN3C(=S)N(C[C@@H](C)C(=O)O)C[C@@H]3C2)NC(c2ncoc2C)=NC1c1cccc(F)c1C (single isomer, unassigned) [Compound 32A, 3-(7-((5-(Ethoxycarbonyl)-6-(3-fluoro-2-methylphenyl)-2-(5-methyloxazol-4-yl)-3,6-dihydropyrimidin-4-yl)methyl)-3-thioxohexahydroimidazo[1,5-a]pyrazin-2(3H)-yl)-2-methylpropanoic acid]
EC50 [1, 3]: 24.9 nM
CC50 at 6 days [2]: 41000 nM

CCOC(=O)C1=C(CN2CCN3C(=S)N(CC(C)(C)C(=O)O)C[C@@H]3C2)NC(c2ncc(F)cc2F)=N[C@H]1c1cccc(F)c1C (single isomer, unassigned) [Compound 22A, 3-(7-((2-(3,5-difluoropyridin-2-yl)-5-(ethoxycarbonyl)-6-(3-fluoro-2-methylphenyl)-3,6-dihydropyrimidin-4-yl)methyl)-3-thioxohexahydroimidazo-[1,5-a]pyrazin-2(3H)-yl)-2,2-dimethylpropanoic acid]
EC50 [1, 3]: 8.9 nM
CC50 at 6 days [2]: 12800 nM
